What was measured:
MEIS1 mRNA expression = MEIS1 mRNA expression assay (Quantigene Singleplex) in MOLM14 cells; assay type: cell-based, human; settings: 48 hours incubation
Protocol: 2b) MEIS1 mRNA Expression Assay
MEIS1 mRNA expression upon treatment of compound was examined by Quantigene Singleplex assay (Thermo Fisher Scientific). This technology allows for direct quantification of mRNA targets using probes hybridizing to defined target sequences of interest and the signal is detected using a Multimode plate reader Envision (PerkinElmer). The MOLM14 cell line was used for this experiment. Cells were plated in 96-well plates at 3,750 cells/well in the presence of increasing concentrations of compounds. After incubation of 48 hours with compounds, cells were lysed in lysis buffer and incubated for 45 minutes at 55° C. Cell lysates were mixed with human MEIS specific capture probe or human RPL28 (Ribosomal Protein L28) specific probe as a normalization control, as well as blocking probes. Cell lysates were then transferred to the custom assay hybridization plate (Thermo Fisher Scientific) and incubated for 18 to 22 hours at 55° C. Subsequently, plates were washed to remove unbound materials followed by sequential addition of preamplifiers, amplifiers, and label probe. Signals (═gene counts) were measured with a Multimode plate reader Envision. IC50S were calculated by dose-response modelling using appropriate software. For all non-housekeeper genes response equal counts corrected for background and relative expression. For each sample, each test gene signal (background subtracted) was divided by the normalization gene signal (RPL28: background subtracted). Fold changes were calculated by dividing the normalized values for the treated samples by the normalized values for the DMSO treated sample. Fold changes of each target gene were used for the calculation of IC50S.

[1] = target: T1, menin/MLL (terbium chelate-labeled menin, FITC-MBM1 peptide) (Homo sapiens, UniProt O00255, T541A); test: Menin/MLL homogenous time-resolved fluorescence (HTRF) assay; assay type: binding; settings: 30 min incubation
T1 construct: Menin (a.a 1-610-6xhis tag, 2.3 mg/mL in 20 mM Hepes)
T1 sequence (O00255 with tags, fused parts or gaps T541A): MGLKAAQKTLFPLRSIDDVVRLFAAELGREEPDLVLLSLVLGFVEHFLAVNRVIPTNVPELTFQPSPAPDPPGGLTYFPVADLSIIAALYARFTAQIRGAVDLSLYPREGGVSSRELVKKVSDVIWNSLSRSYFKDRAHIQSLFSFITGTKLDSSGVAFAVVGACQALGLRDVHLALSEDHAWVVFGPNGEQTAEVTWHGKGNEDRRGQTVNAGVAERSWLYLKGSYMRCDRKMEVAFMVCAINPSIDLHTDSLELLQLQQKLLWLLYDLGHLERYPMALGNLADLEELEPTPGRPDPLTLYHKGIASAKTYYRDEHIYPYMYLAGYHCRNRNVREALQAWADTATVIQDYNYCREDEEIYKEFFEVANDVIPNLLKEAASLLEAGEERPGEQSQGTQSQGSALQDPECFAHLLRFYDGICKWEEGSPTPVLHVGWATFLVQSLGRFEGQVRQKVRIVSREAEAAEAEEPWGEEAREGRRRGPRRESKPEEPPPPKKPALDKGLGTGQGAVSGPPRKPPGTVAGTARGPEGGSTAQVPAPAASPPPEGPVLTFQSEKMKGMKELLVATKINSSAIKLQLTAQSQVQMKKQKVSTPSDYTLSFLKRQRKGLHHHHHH
Protocol: 1) Menin/MLL Homogenous Time-Resolved Fluorescence (HTRF) Assay
To an untreated, white 384-well microtiter plate was added 40 nL 200× test compound in DMSO and 4 μL 2× terbium chelate-labeled menin (vide infra for preparation) in assay buffer (40 mM Tris HCl, pH 7.5, 50 mM NaCl. 1 mM DTT (dithiothreitol) and 0.05% Pluronic F-127). After incubation of test compound and terbium chelate-labeled menin for 30 min at ambient temperature, 4 μL 2×FITC-MBM1 peptide (FITC-β-alanine-[…]-NH2) (“FITC” means fluorescein isothiocyanate) in assay buffer was added, the microtiter plate centrifuged at 1000 rpm for 1 min and the assay mixtures incubated for 15 min at ambient temperature. The relative amount of menin FITC-MBM1 complex present in an assay mixture is determined by measuring the homogenous time-resolved fluorescence (HTRF) of the terbium/FITC donor/acceptor fluorphore pair using an EnVision microplate reader (ex. 337 nm/terbium em. 490 nm/FITC em. 520 nm) at ambient temperature. The degree of fluorescence resonance energy transfer (the HTRF value) is expressed as the ratio of the fluorescence emission intensities of the FITC and terbium fluorophores (F^em520 nm/F^em490 nm). The final concentrations of reagents in the binding assay are […] terbium chelate-labeled menin, 75 nM FITC-MBM1 peptide and 0.5% DMSO in assay buffer. Dose-response titrations of test compounds are conducted using an 11 point, four-fold serial dilution scheme, starting typically at 10 μM.
Compound potencies were determined by first calculating % inhibition at each compound concentration according to equation 1:
% inhibition=((HC−LC)−(HTRF^compound−LC))/(HC−LC))*100 (Eqn 1)
Where LC and HC are the HTRF values of the assay in the presence or absence of a saturating concentration of a compound that competes with FITC-MBM1 for binding to menin, and HTRF^compound is the measured HTRF value in the presence of the test compound. HC and LC HTRF values represent an average of at least 10 replicates per plate.
% inhibition=Bottom+(Top−Bottom)/(1+10^((log/C50−log[cmpd])*h)) (Eqn 2)
Where Bottom and Top are the lower and upper asymptotes of the dose-response curve, respectively, IC50 is the concentration of compound that yields 50% inhibition of signal and h is the Hill coefficient.
Preparation of Terbium cryptate labeling of Menin: Menin (a.a 1-610-6xhis tag, 2.3 mg/mL in 20 mM Hepes (2-[4-(2-Hydroxyethyl)-1-piperazinyl]ethane sulfonic acid), 80 mM NaCl, 5 mM DTT (Dithiothreitol), pH 7.5) was labeled with terbium cryptate as follows. 200 μg of Menin was buffer exchanged into 1×Hepes buffer. 6.67 μM Menin was incubated with 8-fold molar excess NHS (N-hydroxysuccinimide)-terbium cryptate for 40 minutes at room temperature. Half of the labeled protein was purified away from free label by running the reaction over a NAP5 column with elution buffer (0.1M Hepes, pH 7+0.1% BSA (bovine serum albumin)). The other half was eluted with 0.1 M phosphate buffered saline (PBS), pH7. 400 μl of eluent was collected for each, aliquoted and frozen at −80° C. The final concentration of terbium-labeled Menin protein was 115 μg/mL in Hepes buffer and 85 μg/mL in PBS buffer, respectively.

CC(=O)N1C[C@@H]2CN([C@H]3C[C@@H](CN4CC[C@H](Cc5cn(-c6ccc(F)cc6C(=O)N(C)C(C)C)c6cncc(C)c56)C4)C3)C[C@H]2C1 (single isomer, unassigned) [Compound 31] showed an IC50 (MEIS1 mRNA expression; Homo sapiens, MOLM-14, 48 h) of ~470 nM and an IC50 [1] of 0.052 nM.

For CC(=O)N1CCN([C@H]2C[C@@H]([C@H](C(C)C)N3CC(Cc4cn(-c5ccc(F)cc5C(=O)N(C)C(C)C)c5cncc(C)c45)C3)C2)CC1 (single isomer, unassigned) [Compound 32b], the IC50 (MEIS1 mRNA expression; Homo sapiens, MOLM-14, 48 h) was > 1000 nM and the IC50 [1] was 0.472 nM.

With Cc1cncc2c1c(CC1CN([C@@H](C(C)C)[C@H]3C[C@@H](N4CCN(S(C)(=O)=O)CC4)C3)C1)cn2-c1ccc(F)cc1C(=O)N(C)C(C)C (single isomer, unassigned) [Compound 34a] the IC50 (MEIS1 mRNA expression; Homo sapiens, MOLM-14, 48 h) was 16 nM and the IC50 [1] was 0.019 nM.

Cc1cncc2c1c(CC1CN([C@@H](C(C)C)[C@H]3C[C@H](N4CCN(S(C)(=O)=O)CC4)C3)C1)cn2-c1ccc(F)cc1C(=O)N(C)C(C)C (single isomer, unassigned) [Compound 34b] was tested, and the IC50 (MEIS1 mRNA expression; Homo sapiens, MOLM-14, 48 h) was 25 nM and the IC50 [1] was 0.092 nM.

CC(=O)N1C[C@@H]2CN([C@H]3C[C@H]([C@@H](C(C)C)N4CC(Cc5cn(-c6ccc(F)cc6C(=O)N(C)C(C)C)c6cncc(Cl)c56)C4)C3)C[C@H]2C1 (single isomer, unassigned) [Compound 39b] gave an IC50 (MEIS1 mRNA expression; Homo sapiens, MOLM-14, 48 h) of 35 nM and an IC50 [1] of 0.052 nM.

With CC(=O)N1C[C@@H]2CN([C@H]3C[C@@H](C(C(C)C)N4CC(Cc5cn(-c6ccc(F)cc6C(=O)N(C)C(C)C)c6cncc(Cl)c56)C4)C3)C[C@H]2C1 (single isomer, unassigned) [Compound 40a] the IC50 (MEIS1 mRNA expression; Homo sapiens, MOLM-14, 48 h) was ~540 nM and the IC50 [1] was 0.841 nM.

In the case of CC(=O)N1C[C@@H]2CN([C@H]3C[C@H](C(C(C)C)N4CC(Cc5cn(-c6ccc(F)cc6C(=O)N(C)C(C)C)c6cncc(Cl)c56)C4)C3)C[C@H]2C1 (single isomer, unassigned) [Compound 40b], the IC50 (MEIS1 mRNA expression; Homo sapiens, MOLM-14, 48 h) is reported as ~680 nM and the IC50 [1] is reported as 0.182 nM.

Cc1cncc2c1c(C[C@@H]1CCN(CC3COC3)C1)cn2-c1ccc(F)cc1C(=O)N(C)C(C)C (single isomer, unassigned) [Compound 46] showed an IC50 (MEIS1 mRNA expression; Homo sapiens, MOLM-14, 48 h) of 92 nM and an IC50 [1] of 0.047 nM.

Cc1cncc2c1c(C[C@H]1CCN(CC3COC3)C1)cn2-c1ccc(F)cc1C(=O)N(C)C(C)C (single isomer, unassigned) [Compound 47] was tested, and the IC50 (MEIS1 mRNA expression; Homo sapiens, MOLM-14, 48 h) was 55 nM and the IC50 [1] was 0.042 nM.

Compound Cc1cncc2c1c(CC1CCN(C[C@H]3CC[C@H](NS(C)(=O)=O)CC3)C1)cn2-c1ccc(F)cc1C(=O)N(C)C(C)C (single isomer, unassigned) [Compound 68] has an IC50 (MEIS1 mRNA expression; Homo sapiens, MOLM-14, 48 h) of 32 nM and an IC50 [1] of 0.043 nM.

CC(=O)N[C@H]1CC[C@H](CN2CCC(Cc3cn(-c4ccc(F)cc4C(=O)N(C)C(C)C)c4cncc(C)c34)C2)CC1 (single isomer, unassigned) [Compound 72] was tested, and the IC50 (MEIS1 mRNA expression; Homo sapiens, MOLM-14, 48 h) was 182 nM and the IC50 [1] was 0.173 nM.

CC(=O)N[C@H]1CC[C@H](CN2CC[C@H](Cc3cn(-c4ccc(F)cc4C(=O)N(C)C(C)C)c4cncc(C)c34)C2)CC1 (single isomer, unassigned) [Compound 73] showed an IC50 (MEIS1 mRNA expression; Homo sapiens, MOLM-14, 48 h) of 101 nM and an IC50 [1] of 0.057 nM.

CN=S(=O)(c1cc(F)ccc1-n1cc(CC2CCN(CC3CCOCC3)C2)c2c(C)cncc21)C(C)C (single isomer, unassigned) [Compound 77c] was tested, and the IC50 (MEIS1 mRNA expression) was 669 nM and the IC50 [1] was 0.546 nM.

In the case of Cc1cncc2c1c(C[C@@H]1CCN(CC3CCOCC3)C1)cn2-c1ccc(F)cc1[S@](=N)(=O)C(C)C (single isomer, unassigned) [Compound 78a], the IC50 (MEIS1 mRNA expression; Homo sapiens, MOLM-14, 48 h) is reported as ~690 nM and the IC50 [1] is reported as 1.22 nM.

For Cc1cncc2c1c(C[C@@H]1CCN(CC3CCOCC3)C1)cn2-c1ccc(F)cc1[S@](=N)(=O)C(C)C (single isomer, unassigned) [Compound 78b], the IC50 (MEIS1 mRNA expression) was 361 nM and the IC50 [1] was 0.552 nM.

In the case of Cc1cncc2c1c(C[C@H]1CCN(CC3CCOCC3)C1)cn2-c1ccc(F)cc1[S@@](=N)(=O)C(C)C (single isomer, unassigned) [Compound 78d], the IC50 (MEIS1 mRNA expression; Homo sapiens, MOLM-14, 48 h) is reported as 538 nM and the IC50 [1] is reported as 0.875 nM.

With Cc1cncc2c1c(CC1CCN(CC3CCN(C(=O)CCO)CC3)C1)cn2-c1ccc(F)cc1C(=O)N(C)C(C)C (single isomer, unassigned) [Compound 82] the IC50 (MEIS1 mRNA expression; Homo sapiens, MOLM-14, 48 h) was 11 nM and the IC50 [1] was ~0.035 nM.

In the case of Cc1cncc2c1c(CC1CCN(CC3CCN(C(=O)CO)CC3)C1)cn2-c1ccc(F)cc1C(=O)N(C)C(C)C (single isomer, unassigned) [Compound 87], the IC50 (MEIS1 mRNA expression; Homo sapiens, MOLM-14, 48 h) is reported as 27 nM and the IC50 [1] is reported as 0.042 nM.

CC(=O)N1CCC[C@H](CN2CC(Cc3cn(-c4ccc(F)cc4C(=O)N(C)C(C)C)c4cncc(C)c34)C2)C1 (single isomer, unassigned) [Compound 90a] showed an IC50 (MEIS1 mRNA expression; Homo sapiens, MOLM-14, 48 h) of ~127 nM and an IC50 [1] of 0.391 nM.

With CC(=O)N1CCC[C@@H](CN2CC(Cc3cn(-c4ccc(F)cc4C(=O)N(C)C(C)C)c4cncc(C)c34)C2)C1 (single isomer, unassigned) [Compound 90b] the IC50 (MEIS1 mRNA expression; Homo sapiens, MOLM-14, 48 h) was 103 nM and the IC50 [1] was 0.263 nM.

CC(=O)N1CC[C@@H](CN2CCC(Cc3cn(-c4ccc(F)cc4C(=O)N(C)C(C)C)c4cncc(C)c34)C2)C1 (single isomer, unassigned) [Compound 99] showed an IC50 (MEIS1 mRNA expression; Homo sapiens, MOLM-14, 48 h) of ~792 nM and an IC50 [1] of 0.217 nM.

CC(=O)N1CC[C@H](CN2CCC(Cc3cn(-c4ccc(F)cc4C(=O)N(C)C(C)C)c4cncc(C)c34)C2)C1 (single isomer, unassigned) [Compound 100] showed an IC50 (MEIS1 mRNA expression; Homo sapiens, MOLM-14, 48 h) of 434 nM and an IC50 [1] of 0.165 nM.

For CC(=O)NC(C)CN1CCC(Cc2cn(-c3ccc(F)cc3C(=O)N(C)C(C)C)c3cncc(C)c23)C1 (single isomer, unassigned) [Compound 103], the IC50 (MEIS1 mRNA expression) was ~5120 nM and the IC50 [1] was 3.27 nM.

In the case of Cc1cncc2c1c(CC1CCN(CC3CCN(C(=O)CC4CS(=O)(=O)C4)CC3)C1)cn2-c1ccc(F)cc1C(=O)N(C)C(C)C (single isomer, unassigned) [Compound 106], the IC50 (MEIS1 mRNA expression; Homo sapiens, MOLM-14, 48 h) is reported as 104 nM and the IC50 [1] is reported as 0.039 nM.
